Key:
[1] = system: Human mast cell line LAD cells; experiment: Degranulation test using human mast cell line LAD cells; assay type: cell-based; details: IgE-sensitized LAD cells, anti-human IgE stimulation, β-hexosaminidase release, read-out: degranulation inhibitory activity IC50
Protocol: Human mast cell line LAD cells were sensitized with human IgE (Cosmo Bio; final concentration 1 μg/ml) overnight. The cells were harvested, and then washed with PBS (Invitrogen) and washed again with Tyrode's buffer solution (Sigma) containing 0.1% BSA (Sigma). The cells were seeded into a 96-well plate at 10^5 cells/well and then the compound (0.1% final concentration DMSO solution) was added, followed by incubation at 37° C. for 15 minutes. Rabbit anti-human IgE (Dako Japan; final concentration 10 μg/ml) or control Ig (Dako Japan; final concentration 10 μg/ml) was added, followed by incubation at 37° C. for 30 minutes. The supernatant was recovered and p-nitrophenyl-2-acetamido-2-deoxy-β-D-glucopyranoside (Sigma; final concentration 4 mM), a substrate of β-hexosaminidase which is an index of degranulation, was added, followed by incubation at 37° C. for 45 minutes. Glycine (Wako; final concentration 0.2 M, pH 10.4) was added and the reaction was terminated. Then, the absorbance at 405 nm was measured.
The inhibition rate (%) was calculated as (anti-IgE antibody degranulation rate—compound-added group degranulation rate)/(anti-IgE antibody degranulation rate—control antibody degranulation rate)×100. The IC50 value was calculated from the inhibition rate at each concentration and used as an index of inhibitory activity.

[2] = molecular target: T1, Abl (Homo sapiens, UniProt P00519); experiment: Abl inhibition test; assay type: biochemical; details: Abltide substrate, ATP 6 μM, [γ-33P]ATP, 40 minutes room temperature; read-out: Abl inhibitory activity IC50
T1 construct: purchased Wako Pure Chemical Industries
T1 sequence (P00519 whole entry, species assumed): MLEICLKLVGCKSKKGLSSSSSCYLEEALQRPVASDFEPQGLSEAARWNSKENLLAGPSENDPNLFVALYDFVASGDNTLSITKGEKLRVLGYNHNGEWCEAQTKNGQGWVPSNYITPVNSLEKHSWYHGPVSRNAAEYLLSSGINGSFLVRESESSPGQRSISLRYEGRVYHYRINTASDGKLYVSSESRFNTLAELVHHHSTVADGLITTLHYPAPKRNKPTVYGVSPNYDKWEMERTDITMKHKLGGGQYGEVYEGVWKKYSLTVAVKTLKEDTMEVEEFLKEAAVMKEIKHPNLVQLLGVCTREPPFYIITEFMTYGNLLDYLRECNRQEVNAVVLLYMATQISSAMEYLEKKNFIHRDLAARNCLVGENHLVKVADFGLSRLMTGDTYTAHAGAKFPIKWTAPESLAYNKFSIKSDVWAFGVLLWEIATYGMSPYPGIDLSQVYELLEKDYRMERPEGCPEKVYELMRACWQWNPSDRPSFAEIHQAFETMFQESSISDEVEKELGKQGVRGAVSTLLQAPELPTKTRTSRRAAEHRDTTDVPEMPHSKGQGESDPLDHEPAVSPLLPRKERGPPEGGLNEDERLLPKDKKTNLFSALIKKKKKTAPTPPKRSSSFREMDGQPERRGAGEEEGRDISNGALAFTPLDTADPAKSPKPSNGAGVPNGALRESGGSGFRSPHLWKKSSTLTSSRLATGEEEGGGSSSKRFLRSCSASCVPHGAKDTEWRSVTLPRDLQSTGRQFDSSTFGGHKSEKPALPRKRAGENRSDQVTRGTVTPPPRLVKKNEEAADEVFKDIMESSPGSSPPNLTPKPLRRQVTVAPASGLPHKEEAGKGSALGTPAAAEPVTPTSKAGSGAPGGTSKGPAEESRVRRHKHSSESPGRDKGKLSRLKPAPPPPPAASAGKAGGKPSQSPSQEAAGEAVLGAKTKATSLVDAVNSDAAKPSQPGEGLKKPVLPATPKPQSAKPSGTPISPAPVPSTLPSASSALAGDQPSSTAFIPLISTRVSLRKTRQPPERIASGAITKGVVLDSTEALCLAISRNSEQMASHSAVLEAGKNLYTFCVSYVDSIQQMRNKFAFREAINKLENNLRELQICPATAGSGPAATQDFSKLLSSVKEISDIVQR
Protocol: 5 ng/5 μl/well of an Abl (Wako Pure Chemical Industries) solution, 30 μl of an Abltide substrate peptide solution (Wako Pure Chemical Industries; final concentration 5 μM) and 5 μl of a test substance solution were added to a 96-well plate (Corning), followed by incubation at room temperature for 15 minutes. Then, 10 μl of an ATP mixture (ATP: Oriental Yeast, final concentration 6 μM, [γ-33P]ATP: GE Healthcare Biosciences, 0.06 μCi/well, MgAcetate: Cosmo Bio, final concentration 10 mM) was added, followed by incubation at room temperature for 40 minutes. The Abl solution was prepared using a kinase buffer (20 mM MOPS pH 7.0, 1 mM EDTA, 0.1% β-mercaptoethanol, 0.01% Brij-35, 5% glycerol, 1 mg/ml BSA). The substrate peptide solution and the ATP mixture were prepared using 8 mM MOPS pH 7.0 and 0.2 mM
EDTA. The test substance solution was made by dissolving the test substance in DMSO at each concentration. The final concentration of DMSO was 1%. The reaction was terminated by adding 100 μl of a 100 mM phosphoric acid solution as a reaction terminator. Then, the total reaction solution was transferred to a 96-well MultiScreen plate (Millipore) and washed with 200 μl of 100 mM phosphoric acid three times. After drying, 20 μl of MicroScint-O (PerkinElmer) was added and the radioactivity was measured by TopCount (PerkinElmer). After subtracting the radioactivity in the well to which the Abltide substrate peptide was not added from each radioactivity, the ratio of the radioactivity when the test substance was added to the radioactivity when the test substance was not added was determined. The IC50 value was calculated from the inhibition rate at each concentration and used as an index of inhibitory activity.

[3] = molecular target: T2, Syk (Homo sapiens, UniProt P43405); experiment: Syk inhibition test; assay type: biochemical; details: poly(L-glu-L-tyr) substrate, ATP 5 μM, [γ-33P]ATP, 30 minutes room temperature; read-out: Syk inhibitory activity IC50
T2 construct: purchased Wako Pure Chemical Industries
Protocol: 10 ng/10 μl/well of a Syk (Wako Pure Chemical Industries) solution, 15 μl of a poly(L-glu-L-tyr) substrate peptide solution (Sigma, final concentration 5 μM), 20 μl of an ATP mixture (ATP: Oriental Yeast, final concentration 5 μM, [γ-33P]ATP: GE Healthcare Biosciences, 0.1 μCi/well) and 5 μl of a test substance solution were added to a 96-well Corning reaction plate, followed by incubation at room temperature for 30 minutes. An assay buffer containing 50 mM Tris pH 7.5, 10 mM MgCl2, 0.1 mM Na3VO4, 1 mM DTT, 0.01% CHAPS and 100 μg/ml BSA was used. The test substance solution was made by dissolving the test substance in DMSO at each concentration. The final concentration of DMSO was 1%. The reaction was terminated by adding 100 μl of a 120 mM phosphoric acid solution as a reaction terminator. Then, the total reaction solution was transferred to MultiScreen (Millipore) and washed with 200 μl of 100 mM phosphoric acid four times.
After drying, 20 μl of MicroScint-O (PerkinElmer) was added and the radioactivity was measured by TopCount (PerkinElmer). The ratio of the radioactivity when the test substance was added to the radioactivity when the test substance was not added was determined. The IC50 value was calculated from the inhibition rate at each concentration and used as an index of inhibitory activity.

| SMILES | IC50 [2] [nM] | IC50 [3] [nM] | IC50 [1] [nM] |
| --- | --- | --- | --- |
| C[S+]([O-])c1n[nH]c2nc(Nc3ccc(N4CCOCC4)cc3)nc(NC3CC3)c12 (stereo not shown) [Compound 4, N^4-Cyclopropyl-3-(methylsulfinyl)-N^6-(4-morpholin-4-ylphenyl)-1H-pyrazolo[3,4-d]pyrimidine-4,6-diamine] |  |  | ≤ 100 |
| CSc1n[nH]c2nc(Nc3ccc(N4CCOCC4)cc3)nc(NC3CC3)c12 [Compound 13, N^4-Cyclopropyl-3-(methylsulfanyl)-N^6-(4-morpholin-4-ylphenyl)-1H-pyrazolo[3,4-d]pyrimidine-4,6-diamine] |  |  | ≤ 100 |
| CS(=O)(=O)c1n[nH]c2nc(Nc3ccc4[nH]cnc4c3)nc(NC3CC3)c12 [Compound 21] | ≤ 50 |  |  |
| Cc1cc(Nc2nc(NC3CC3)c3c(S(C)(=O)=O)n[nH]c3n2)ccc1N1CCOCC1 [Compound 38] | ≤ 50 |  |  |
| CC(C)(C)Nc1nc(Nc2ccc(N3CCOCC3)cc2)nc2[nH]nc(S(C)(=O)=O)c12 [Compound 55] | ≤ 10 |  |  |
| CS(=O)(=O)c1n[nH]c2nc(Nc3ccc(N4CCOCC4)cc3)nc(NCCCC(N)=O)c12 [Compound 60] | ≤ 50 |  |  |
| CS(=O)(=O)c1n[nH]c2nc(Nc3ccc(N4CCNCC4)cc3)nc(NC3CC3)c12 [Compound 74] | ≤ 10 | ≤ 200 | ≤ 100 |
| CS(=O)(=O)c1n[nH]c2nc(Nc3ccc(N4CCCC(O)C4)cc3)nc(NC3CC3)c12 (stereo not shown) [Compound 78] | ≤ 10 |  |  |
| CS(=O)(=O)c1n[nH]c2nc(Nc3ccc(N4CCC(=O)CC4)cc3)nc(NC3CC3)c12 [Compound 88] |  |  | ≤ 100 |
| CSc1n[nH]c2nc(Nc3ccc(N4CCOCC4)cc3)nc(NCCCCN)c12 [Compound 102] | ≤ 50 | ≤ 200 | ≤ 100 |
| CS(=O)(=O)c1n[nH]c2nc(Nc3ccc(N4CCOCC4)cc3)nc(NC3CCCC3)c12 [Compound 103] | ≤ 50 |  |  |
| CS(=O)(=O)c1n[nH]c2nc(Nc3ccc(N4CCOCC4)cc3)nc(NCCCCN)c12 [Compound 107] | ≤ 50 | ≤ 200 | ≤ 100 |
| CCSc1n[nH]c2nc(Nc3ccc(N4CCOCC4)cc3)nc(NC3CC3)c12 [Compound 108] | ≤ 50 |  |  |
| CSc1n[nH]c2nc(Nc3ccc(N4CCOCC4)cc3)nc(NCCCCCN)c12 [Compound 110] | ≤ 50 |  |  |
| CSc1n[nH]c2nc(Nc3ccc(N4CCOCC4)cc3)nc(N[C@H]3CC[C@@H](N)CC3)c12 [Compound 112] | ≤ 10 | 20 | 19 |
| CCSc1n[nH]c2nc(Nc3ccc(N4CCOCC4)cc3)nc(NCCCCN)c12 [Compound 114] | ≤ 50 | ≤ 200 |  |
| CCSc1n[nH]c2nc(Nc3ccc(N4CCOCC4)cc3)nc(N[C@H]3CC[C@H](N)CC3)c12 [Compound 115] | ≤ 10 | ≤ 200 |  |
| CNCCCCNc1nc(Nc2ccc(N3CCOCC3)cc2)nc2[nH]nc(SC)c12 [Compound 116] | ≤ 50 |  |  |
| CS(=O)(=O)c1n[nH]c2nc(Nc3ccc(N4CCOCC4)cc3)nc(N[C@H]3CC[C@@H](N)CC3)c12 [Compound 117, N^4-(cis-4-Aminocyclohexyl)-3-(methylsulfonyl)-N^6-(4-morpholin-4-ylphenyl)-1H-pyrazolo[3,4-d]pyrimidine-4,6-diamine] | ≤ 10 |  |  |
| CC(C)Sc1n[nH]c2nc(Nc3ccc(N4CCOCC4)cc3)nc(N[C@H]3CC[C@@H](N)CC3)c12 [Compound 119] | ≤ 10 |  |  |
| CS(=O)(=O)c1n[nH]c2nc(Nc3ccc(N4CCC(CO)CC4)cc3)nc(NC3CC3)c12 [Compound 126] | ≤ 10 |  |  |
| CN(C)C(=O)C1CCN(c2ccc(Nc3nc(NC4CC4)c4c(S(C)(=O)=O)n[nH]c4n3)cc2)CC1 [Compound 128] | ≤ 50 | ≤ 200 | ≤ 100 |
| CS(=O)(=O)c1n[nH]c2nc(Nc3ccc(N4CCCC(CO)C4)cc3)nc(NC3CC3)c12 (stereo not shown) [Compound 130] | ≤ 10 | ≤ 200 | ≤ 100 |

Further lines, with some results ahead:

| IC50 [2] [nM] | IC50 [3] [nM] | SMILES | IC50 [1] [nM] |
| --- | --- | --- | --- |
| ≤ 10 | ≤ 200 | CN1CCN(c2ccc(Nc3nc(NC4CC4)c4c(S(C)(=O)=O)n[nH]c4n3)cc2)CC1 [Compound 131, N^4-Cyclopropyl-N^6-[4-(4-methylpiperazin-1-yl)phenyl]-3-(methylsulfonyl)-1H-pyrazolo[3,4-d]pyrimidine-4,6-diamine] | ≤ 100 |
| ≤ 10 |  | CS(=O)(=O)c1n[nH]c2nc(Nc3ccc(N4CCCC(C(N)=O)C4)cc3)nc(NC3CC3)c12 (stereo not shown) [Compound 132] |  |
| ≤ 10 | ≤ 200 | CS(=O)(=O)c1n[nH]c2nc(Nc3ccc(N4CCS(=O)(=O)CC4)cc3)nc(NC3CC3)c12 [Compound 134] | ≤ 100 |
|  | ≤ 200 | CCN1CCN(c2ccc(Nc3nc(NC4CC4)c4c(S(C)(=O)=O)n[nH]c4n3)cc2)CC1 [Compound 135] | ≤ 100 |
|  | ≤ 200 | CC(C)N1CCN(c2ccc(Nc3nc(NC4CC4)c4c(S(C)(=O)=O)n[nH]c4n3)cc2)CC1 [Compound 138] | ≤ 100 |
| ≤ 10 | ≤ 200 | CS(=O)(=O)c1n[nH]c2nc(Nc3ccc(N4CCN(S(C)(=O)=O)CC4)cc3)nc(NC3CC3)c12 [Compound 146] |  |
| ≤ 50 |  | CNC(=O)COc1cccc(Nc2nc(NC3CC3)c3c(S(C)(=O)=O)n[nH]c3n2)c1 [Compound 150] |  |
| ≤ 10 |  | CNS(=O)(=O)c1ccc(Nc2nc(NC3CC3)c3c(S(C)(=O)=O)n[nH]c3n2)cc1 [Compound 152] |  |
| ≤ 50 |  | CS(=O)(=O)c1n[nH]c2nc(Nc3ccc(N4CCOCC4)cc3)nc(Nc3ccccc3C(N)=O)c12 [Compound 188] |  |
| ≤ 50 |  | CSc1n[nH]c2nc(Nc3ccc(N4CCOCC4)cc3)nc(Nc3ccc4nc[nH]c4c3)c12 [Compound 192] |  |
| ≤ 10 |  | CSc1n[nH]c2nc(Nc3ccc(N4CCOCC4)cc3)nc(NCCc3c[nH]cn3)c12 [Compound 200] |  |
| ≤ 50 |  | CSc1n[nH]c2nc(Nc3ccc(N4CCOCC4)cc3)nc(Nc3ccc4cn[nH]c4c3)c12 [Compound 206] |  |
| ≤ 50 |  | CSc1n[nH]c2nc(Nc3ccc(N4CCOCC4)cc3)nc(Nc3ccc4[nH]c(O)nc4c3)c12 [Compound 208] |  |
| ≤ 10 |  | N[C@H]1CC[C@@H](Nc2nc(Nc3ccc(N4CCOCC4)cc3)nc3[nH]ncc23)CC1 [Compound 216, N^4-(cis-4-Aminocyclohexyl)-N^6-(4-morpholinophenyl)-1H-pyrazolo[3,4-d]pyrimidine-4,6-diamine] |  |
| ≤ 10 |  | N[C@H]1CC[C@@H](Oc2nc(Nc3ccc(N4CCOCC4)cc3)nc3[nH]ncc23)CC1 [Compound 217, cis-4-(4-Aminocyclohexyloxy)-N-(4-morpholinophenyl)-1H-pyrazolo[3,4-d]pyrimidin-6-amine] |  |
| ≤ 50 |  | CS(=O)(=O)c1n[nH]c2nc(Nc3ccc(-c4ccc(C(=O)O)cc4)cc3)nc(NC3CC3)c12 [Compound 227] |  |
| ≤ 50 |  | CC1CN(C(=O)c2ccc(Nc3nc(NC4CC4)c4c(S(C)(=O)=O)n[nH]c4n3)cc2)CC(C)O1 (stereo not shown) [Compound 240] |  |

Source: US20100298557A1, “PYRAZOLOPYRIMIDINE COMPOUND” (Taisho Pharmaceutical Co., Ltd, priority 2006, published 2010)
